Assay results as given in patent US20090239860A1, “NOVEL BENZOFURAN DERIVATIVE, MEDICINAL COMPOSITION CONTAINING THE SAME, AND USES OF THESE” (priority 2004, published 2009).

Each compound was assayed against T1, human adenosine A2A receptor (Homo sapiens, UniProt P29274) (assay: Measurement of antagonistic action for human adenosine A2A receptor (inhibition of NECA-induced cAMP production in transfected CHO-K1 cells)). Conditions: human adenosine A2A receptor-expressed CHO-K1 cells, Ki from IC50 and Km for NECA.
T1 construct: expressed in transfected cells; host or cells: CHO-K1 (Chinese hamster ovary-K1), transient transfection with Lipofectamine 2000
Format: cell-based
Protocol: Measurement of Antagonistic Action for Human Adenosine A2a Receptor
1) Preparation of Human Adenosine A2a Receptor-Expressed Cells
When Chinese hamster ovary-K1 (CHO-K1) cells were grown to subconfluence, they were treated with trypsin and suspended in D-MEM/F-12 medium (Invitrogen) including 10% fetal bovine serum (Sankojunyaku). The expression vector of human adenosine A2A receptor prepared in OPTI-MEM I (Invitrogen) and the transfection reagent of Lipofectamine 2000 (Invitrogen) were added to the cell suspension, and those cells were inoculated in poly-D-lysine-coated 96-well plates (5×10^4 cells/well). After incubating the plates for 24-30 hours at 37° C. in a humidified atmosphere with 5% CO2, they were used for the subsequent assays.
2) Measurement of the Inhibitory Effect on Human Adenosine A2a Receptor Activity
A test compound was dissolved in dimethyl sulfoxide (DMSO) and the resulting solution was added to D-MEM/F-12 medium supplemented with 2.5 unit/mL adenosine deaminase (Carbiochem) and 30 μM rolipram (Sigma), a phosphodiesterase inhibitor to prepare a solution of the test compound. Adenosine deaminase was used for the inactivation of adenosine derived from the cells.
The human adenosine A2A-expressed cells inoculated in the 96-well plates were washed twice with 150 μL/well of D-MEM/F-12 medium and a 50-μL aliquot of the test compound solution was then added to each well of the plates. After incubating the cells for 10 minutes at 37° C. in a humidified atmosphere with 5% CO2, a 50-μL aliquot of 1.2 nM 5′-N-ethylcarboxyamideadenosine (NECA; Sigma) including 2.5 unit/mL adenosine deaminase and 30 μM rolipram was added to each well of the plates and incubated for 25 minutes at 37° C. in a humidified atmosphere with 5% CO2. Stopping the reaction and the subsequent measurement of cAMP were performed by use of a cAMP enzyme-linked immunosorbent assay kit (Applied Biosystem). The chemoluminescence was measured by a Microplate Luminometer TR717 (Applied Biosystem). The experiments were carried out in duplicate wells.
Inhibitory rate of a test compound for NECA-induced cAMP production was found by the following formula:
Inhibitory rate (%)=[1−{(cAMP level with a test compound and NECA)−(cAMP level without a test compound and NECA)}/{(cAMP level with NECA)−(cAMP level without a test compound and NECA)}]×100
Using a Km value for NECA found by the measurement in the same plate as that of test compounds, an inhibitory constant Ki was found by the following formula: […]

T1 sequence (P29274 whole entry): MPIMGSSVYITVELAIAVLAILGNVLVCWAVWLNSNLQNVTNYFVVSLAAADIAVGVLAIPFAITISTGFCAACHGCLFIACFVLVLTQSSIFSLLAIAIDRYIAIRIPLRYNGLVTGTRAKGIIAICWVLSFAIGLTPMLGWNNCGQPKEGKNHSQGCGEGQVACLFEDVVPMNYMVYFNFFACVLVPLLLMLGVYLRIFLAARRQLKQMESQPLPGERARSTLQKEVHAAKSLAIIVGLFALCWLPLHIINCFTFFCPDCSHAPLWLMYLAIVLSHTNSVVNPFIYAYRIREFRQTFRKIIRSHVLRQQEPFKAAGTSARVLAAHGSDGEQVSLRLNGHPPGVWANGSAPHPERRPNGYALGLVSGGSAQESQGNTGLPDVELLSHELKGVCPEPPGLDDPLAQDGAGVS

Row | Structure (SMILES) | Ki
1 | NC(=O)c1oc2ccc(F)cc2c1NC(=O)C1CC1 [Compound 1-1, 3-Cyclopropanecarbonylamino-5-fluorobenzofuran-2-carboxamide] | 8.5 nM
2 | NC(=O)c1oc2ccc(Cl)cc2c1NC(=O)C1CC1 [Compound 1-2, 3-Cyclopropanecarbonylamino-5-chlorobenzofuran-2-carboxamide] | 4.1 nM
3 | COc1ccc2c(NC(=O)c3cccc(F)c3)c(C(N)=O)oc2c1 [Compound 1-15] | 6.5 nM
4 | COc1ccc2c(NC(=O)c3ccc(F)cc3)c(C(N)=O)oc2c1 [Compound 1-16] | 0.9 nM
5 | Cc1cccc(C(=O)Nc2c(C(N)=O)oc3ccc(F)cc23)c1 [Compound 1-36] | 6.4 nM
6 | NC(=O)c1oc2cc(F)ccc2c1NC(=O)c1ccc2c(c1)OCO2 [Compound 1-91] | 6.5 nM
7 | NC(=O)c1oc2ccc(Cl)cc2c1NC(=O)c1ccco1 [Compound 1-108] | 9.3 nM
8 | NC(=O)c1oc2c(F)cc(F)cc2c1NC(=O)c1ccco1 [Compound 1-109] | 2.7 nM
9 | Cc1ccc(C(=O)Nc2c(C(N)=O)oc3c(F)cc(F)cc23)o1 [Compound 1-119] | 1.9 nM
10 | CCc1ccc(C(=O)Nc2c(C(N)=O)oc3ccc(F)cc23)o1 [Compound 1-121] | 0.8 nM
11 | CCc1ccc(C(=O)Nc2c(C(N)=O)oc3c(F)cc(F)cc23)o1 [Compound 1-125] | 1.2 nM
12 | COc1ccc2c(NC(=O)c3ccc(-c4ccccc4)o3)c(C(N)=O)oc2c1 [Compound 1-133] | 3.2 nM
13 | NC(=O)c1oc2cc(F)ccc2c1NC(=O)c1ccc(Oc2ccccc2)nc1 [Compound 1-138] | 4.5 nM
14 | COCC(=O)Nc1c(C(N)=O)oc2cc(OC)ccc12 [Compound 1-141] | 9.3 nM
15 | NC(=O)c1oc2ccc(F)cc2c1NC(=O)COc1ccc(Cl)cc1 [Compound 1-145] | 2.7 nM
16 | NC(=O)c1oc2ccc(F)cc2c1NC(=O)COCc1ccccc1 [Compound 1-150] | 2.2 nM
17 | NC(=O)c1oc2cc(Cl)ccc2c1NC(=O)C1CC1 [Compound 1-153] | 9.2 nM
18 | NC(=O)c1oc2c(F)cc(F)cc2c1NC(=O)C1CC1 [Compound 1-155] | 8.1 nM
19 | NC(=O)c1oc2c(Cl)cc(F)cc2c1NC(=O)C1CC1 [Compound 1-156] | 9.8 nM
20 | COc1cc(F)cc2c(NC(=O)C3CC3)c(C(N)=O)oc12 [Compound 1-159] | 3.3 nM
21 | NC(=O)c1oc2c(F)cc(F)cc2c1NC(=O)C1CCC1 [Compound 1-161] | 7 nM
22 | COc1ccc(C(=O)Nc2c(C(N)=O)oc3c(OC)cc(F)cc23)cc1 [Compound 1-213] | 2.1 nM
23 | NC(=O)c1oc2c(F)cc(F)cc2c1NC(=O)Cc1ccccc1 [Compound 1-249] | 4.6 nM
24 | CN1CCN(C(=O)c2cccc(C(=O)Nc3c(C(N)=O)oc4c(F)cc(F)cc34)c2)CC1 [Compound 1-275] | 0.5 nM
25 | COc1ccc2c(NC(=O)c3cccc(CN4CCN(c5ccccc5)CC4)c3)c(C(N)=O)oc2c1 [Compound 2-1, 6-Methoxy-3-[3-(4-phenylpiperazin-1-ylmethyl)benzoylamino]-benzofuran-2-carboxamide] | 8 nM
26 | COc1ccc2c(NC(=O)c3ccc(CSc4nccn4C)cc3)c(C(N)=O)oc2c1 [Compound 2-7] | 8.6 nM
27 | NC(=O)c1oc2c(F)cc(F)cc2c1NC(=O)c1ccc(CN2CCN(Cc3ccccc3)CC2)o1 [Compound 2-129] | 1.6 nM
28 | NC(=O)c1oc2c(F)cc(F)cc2c1NC(=O)c1ccc(CN2CCN(Cc3ccc4c(c3)OCO4)CC2)o1 [Compound 2-138] | 2 nM
29 | CC(C)(C)OC(=O)N1CCN(Cc2ccc(C(=O)Nc3c(C(N)=O)oc4c(F)cc(F)cc34)o2)CC1 [Compound 2-142, tert-butyl 4-[5-(2-carbamoyl-5,7-difluoro-benzofuran-3-ylcarbamoyl)furan-2-ylmethyl]piperazine-1-carboxylate] | 2 nM
30 | CC(O)c1ccc(C(=O)Nc2c(C(N)=O)oc3ccc(F)cc23)o1 (stereo not shown) [Compound 6-2, 5-Fluoro-3-[5-(1-hydroxyethyl)furan-2-carbonyl]-aminobenzofuran-2-carboxamide] | 1.1 nM

The compounds below were run on Haloperidol-induced catalepsy in rats (assay: Haloperidol-induced catalepsy in rats (horizontal bar test)). Conditions: male rats; compound 10 mg/kg orally in PEG400 2 hours before measurement; 5 hours after 1 mg/kg i.p. haloperidol; maximum 180 seconds (control 180.0).
Format: in vivo, rat
Protocol: Haloperidol-Induced Catalepsy in Rats
The effect of a compound on drug-induced catalepsy in rats was evaluated. Parkinson's disease is a movement disorder reflecting a decline in striatal dopamine due to the degeneration of dopaminergic neuron arising from the sbstantia nigra. When haloperidol, a blocker of dopamine D2 receptor is administered in rats, the drug induces catalepsy which is considered as one of the Parkinson's disease-like symptoms since haloperidol blocks the neurotransmission of dopaminergic neuron. Male rats (Crj: CD(SD)IGS, bodyweight: 210-260 g, Charles River Japan, Inc.) were used for the experiments. Three to five rats for each group were tested for catalepsy 5 hours after intraperitoneal administration of 1 mg/kg haloperidol (Serenace (registered mark); Dainippon Pharma), a dopamine D2 antagonist. Catalepsy was measured using the horizontal bar test (Morelli and Chiara, “Eur. J. Pharmacol.”, vol. 117, p. 179-185 (1985)). A compound (10 mg/kg) was dissolved in PEG400 and administered orally 2 hours prior to the measurement of catalepsy. PEG400 was also administered orally to the rats for the control group. The front feet of the rats were placed on a horizontal bar (3 mm in diameter) suspended 10-12 cm above a platform and their rear feet were placed on the platform. The degree of catalepsy produced in the rats was measured by how long it took for their front feet to remove themselves from the bar. A maximum of 180 seconds was allowed.

Row | Structure (SMILES) | Duration of catalepsy
31 | NC(=O)c1oc2ccc(Cl)cc2c1NC(=O)C1CC1 [Compound 1-2, 3-Cyclopropanecarbonylamino-5-chlorobenzofuran-2-carboxamide] | 91.6 s
32 | COc1ccc2c(NC(=O)c3ccc(F)cc3)c(C(N)=O)oc2c1 [Compound 1-16] | 116.4 s
33 | CCc1ccc(C(=O)Nc2c(C(N)=O)oc3ccc(F)cc23)o1 [Compound 1-121] | 48.2 s
34 | NC(=O)c1oc2c(F)cc(F)cc2c1NC(=O)C1CC1 [Compound 1-155] | 38.3 s
